Marks after values point to notes of the source that are not given here.
Legend:
[1] = tested on: rats with beta-amyloid induced senile dementia; assay: Water maze test, beta-amyloid induced senile dementia rats; format: in vivo, rat; conditions: for adopted strategy for reaching the platform (the peripheral type and the random type %) / orientation angle for reaching the platform / speed for reaching the platform / swimming path length for reaching the platform / time for reaching the platform: succinate; for orientation angle for reaching the platform / speed for reaching the platform / swimming path length for reaching the platform / time for reaching the platform: x ± s
[2] = tested on: rats with common carotid artery occlusion-induced vascular dementia; assay: Step-down test, common carotid artery occlusion-induced vascular dementia rats; format: in vivo, rat; conditions: for Day 1, Error number / Day 2, Error latency / Day 2, Error number: step-down method, x ± s, succinate
Text: A rat blood vessel dementia model was made according to the references [ZHAO Xian-lin, FANG Xiu-bin, LI Dong-pei. Establishment of Vascular Dementia Model in Rats, J Chin Med Univ, 2002, 31 (3): 166-168; WANG Yong-yan, Zhang Bo-li, Editor-in-chief. Modern Chinese Medicine Clinic and Research on Vascular Dementia, People's Medical Publishing House, October 2003, First Version 214]: Chloral hydrate 0.4 g/kg was intraperitoneally injected for anesthetizing rats, and bilateral common carotid arteries were isolated and ligated. The animals were fed for 16 weeks, divided into groups on the last 7 days, and administered. The normal control group and the model group were administrated through the intragastric route with distilled water by 0.5 ml/100 g, the positive control group was administrated through the intragastric route with donepezil hydrochloride by 1.75 mg/kg (equivalent to 3.85 times the clinical daily dosage of 5 mg/70 kg), the low, medium and high-dose groups of Crystal Form A of octahydroaminoacridine succinate were administrated through the intragastric route with Crystal Form A of octahydroaminoacridine succinate by 0.7, 1.4 and 2.8 mg/kg (equivalent to 0.96, 1.92 and 3.85 times the clinical daily dosage of 8 mg/70 kg). The water maze test and the step-down test were carried out after continuous administration for 7 days, and the administration was continued during the test period. The water maze test was continuously performed for 7 days, in the first 6 days, in four different water entry points of quadrants 1, 2, 3 and 4, the time, the swimming path length, the orientation angle and the average speed of the rat reaching the platform were measured, meanwhile, the strategy for reaching the platform adopted by rats was observed, on the 7th day, the platform was removed, the number of rats crossing the platform in 2 minutes, the residence time in the platform area, the residence time in the platform quadrants, the percentage of the swimming path length in the platform area quadrants to the total swimming path length, the average speed and the orientation angle were measured. After the water maze test was finished, the step-down test was performed, and the number of electric shocks (or called as the error number) received by each rat within 5 minutes was recorded as the learning performance. The test was performed again after 24 hours, namely, the memory retention test, and the latent period for stepping-down the platform for the first time and the error number in five minutes were recorded. After the step-down test was finished, the brain was taken quickly for pathological examination, and the pathological changes of the hippocampus and the cortex were observed.

[3] = 0.7, 1.4 and 2.8 mg/kg, Day 7, P<0.05 or P<0.01
[4] = Day 1, 0.7 mg/kg intragastric, 0.7 mg/kg
[5] = Day 1, 1.4 mg/kg intragastric, 1.4 mg/kg
[6] = Day 1, 2.8 mg/kg intragastric, 2.8 mg/kg
[7] = Day 2, 0.7 mg/kg intragastric, 0.7 mg/kg
[8] = Day 2, 1.4 mg/kg intragastric, 1.4 mg/kg
[9] = Day 2, 2.8 mg/kg intragastric, 2.8 mg/kg
[10] = Day 3, 0.7 mg/kg intragastric, 0.7 mg/kg
[11] = Day 3, 1.4 mg/kg intragastric, 1.4 mg/kg
[12] = Day 3, 2.8 mg/kg intragastric, 2.8 mg/kg
[13] = Day 4, 0.7 mg/kg intragastric, 0.7 mg/kg
[14] = Day 4, 1.4 mg/kg intragastric, 1.4 mg/kg
[15] = Day 4, 2.8 mg/kg intragastric, 2.8 mg/kg
[16] = Day 5, 0.7 mg/kg intragastric, 0.7 mg/kg
[17] = Day 5, 1.4 mg/kg intragastric, 1.4 mg/kg
[18] = Day 5, 2.8 mg/kg intragastric, 2.8 mg/kg
[19] = Day 6, 0.7 mg/kg intragastric, 0.7 mg/kg
[20] = Day 6, 1.4 mg/kg intragastric, 1.4 mg/kg
[21] = Day 6, 2.8 mg/kg intragastric, 2.8 mg/kg
[22] = 0.7 mg/kg intragastric, 0.7 mg/kg
[23] = 1.4 mg/kg intragastric, 1.4 mg/kg
[24] = 2.8 mg/kg intragastric, 2.8 mg/kg

Nc1c2c(nc3c1CCCC3)CCCC2.O=C(O)CCC(=O)O [Crystal Form A, 9-amino-1,2,3,4,5,6,7,8-octahydroacridine succinate]
latent period for reaching the platform vs model group ([1]; 0.7 mg/kg, Day 1, P<0.05): obviously shortened
latent period for reaching the platform vs model group ([1]; 1.4 mg/kg, Day 1 to Day 6, P<0.05 or P<0.01): obviously shortened
swimming path length for reaching the platform vs model group ([1]; 1.4 mg/kg, Day 3 and Day 5, P<0.05): obviously shortened
percentage of the swimming path length in the platform area quadrants to the total swimming path length vs model group ([1]; 1.4 mg/kg, Day 7, P<0.05): obviously increased
residence time in the platform quadrants vs model group ([1]; 1.4 mg/kg, Day 7, P<0.05): obviously increased
orientation angle vs model group ([1]; 2.8 mg/kg, Day 2, Day 3, Day 5 and Day 6, P<0.05 or P<0.01): obviously decreased
latent period for reaching the platform vs model group ([1]; 2.8 mg/kg, Day 2 to Day 6, P<0.05 or P<0.01): obviously shortened
swimming path length for reaching the platform vs model group ([1]; 2.8 mg/kg, Day 5 and Day 6, P<0.05): obviously shortened
swimming speed vs model group ([1]; 0.7, 1.4 and 2.8 mg/kg, Day 1, P<0.05): obviously increased
average speed and orientation angle vs model group ([1]; 0.7, 1.4 and 2.8 mg/kg, Day 7): not obviously changed
number of rats crossing the platform within 2 minutes vs model group [1, 3]: obviously increased
residence time on the platform vs model group [1, 3]: obviously increased
conversion from the peripheral type and the random type to the tendency type and the linear type in the strategy for looking for the platform ([1]; 0.7, 1.4 and 2.8 mg/kg, P<0.05 or P<0.01): obviously increased
orientation angle vs model group ([1]; 0.7 and 1.4 mg/kg, Day 2, P<0.05): obviously decreased
adopted strategy for reaching the platform (the peripheral type and the random type %) [1, 4]: 87.50%
orientation angle for reaching the platform [1, 4]: 62.79 ± 19.80 °
speed for reaching the platform [1, 4]: 22.41 ± 7.84 cm/s
swimming path length for reaching the platform [1, 4]: 1169.52 ± 985.73 cm
time for reaching the platform [1, 4]: 51.79 ± 26.01 s
adopted strategy for reaching the platform (the peripheral type and the random type %) [1, 5]: 92.50%
orientation angle for reaching the platform [1, 5]: 77.42 ± 21.94 °
speed for reaching the platform [1, 5]: 21.16 ± 5.82 cm/s
swimming path length for reaching the platform [1, 5]: 1022.59 ± 558.57 cm
time for reaching the platform [1, 5]: 47.00 ± 19.96 s
adopted strategy for reaching the platform (the peripheral type and the random type %) [1, 6]: 95.50%
orientation angle for reaching the platform [1, 6]: 61.45 ± 13.71 °
speed for reaching the platform [1, 6]: 19.76 ± 2.88 cm/s
swimming path length for reaching the platform [1, 6]: 1215.28 ± 534.19 cm
time for reaching the platform [1, 6]: 65.22 ± 26.94 s
adopted strategy for reaching the platform (the peripheral type and the random type %) [1, 7]: 68.75%
orientation angle for reaching the platform [1, 7]: 48.33 ± 25.33 °
speed for reaching the platform [1, 7]: 28.34 ± 10.42 cm/s
swimming path length for reaching the platform [1, 7]: 762.15 ± 878.65 cm
time for reaching the platform [1, 7]: 29.20 ± 28.52 s
adopted strategy for reaching the platform (the peripheral type and the random type %) [1, 8]: 77.50%
orientation angle for reaching the platform [1, 8]: 53.95 ± 19.36 °
speed for reaching the platform [1, 8]: 24.65 ± 5.95 cm/s
swimming path length for reaching the platform [1, 8]: 657.63 ± 419.44 cm
time for reaching the platform [1, 8]: 29.60 ± 18.83 s
adopted strategy for reaching the platform (the peripheral type and the random type %) [1, 9]: 67.50* %
orientation angle for reaching the platform [1, 9]: 42.58 ± 17.57 °
speed for reaching the platform [1, 9]: 23.62 ± 5.04 cm/s
swimming path length for reaching the platform [1, 9]: 717.16 ± 484.50 cm
time for reaching the platform [1, 9]: 27.92 ± 18.96 s
adopted strategy for reaching the platform (the peripheral type and the random type %) [1, 10]: 87.50%
orientation angle for reaching the platform [1, 10]: 59.46 ± 34.15 °
speed for reaching the platform [1, 10]: 25.56 ± 10.30 cm/s
swimming path length for reaching the platform [1, 10]: 922.69 ± 927.53 cm
time for reaching the platform [1, 10]: 39.88 ± 39.00 s
adopted strategy for reaching the platform (the peripheral type and the random type %) [1, 11]: 70.50%
orientation angle for reaching the platform [1, 11]: 49.79 ± 16.12 °
speed for reaching the platform [1, 11]: 23.53 ± 5.74 cm/s
swimming path length for reaching the platform [1, 11]: 359.75 ± 164.16 cm
time for reaching the platform [1, 11]: 15.74 ± 5.83 s
adopted strategy for reaching the platform (the peripheral type and the random type %) [1, 12]: 70.00%
orientation angle for reaching the platform [1, 12]: 41.19 ± 18.30 °
speed for reaching the platform [1, 12]: 22.47 ± 2.59 cm/s
swimming path length for reaching the platform [1, 12]: 426.44 ± 213.56 cm
time for reaching the platform [1, 12]: 20.24 ± 10.26 s
adopted strategy for reaching the platform (the peripheral type and the random type %) [1, 13]: 64.50* %
orientation angle for reaching the platform [1, 13]: 47.21 ± 18.21 °
speed for reaching the platform [1, 13]: 24.92 ± 2.52 cm/s
swimming path length for reaching the platform [1, 13]: 806.38 ± 1014.62 cm
time for reaching the platform [1, 13]: 32.05 ± 39.88 s
adopted strategy for reaching the platform (the peripheral type and the random type %) [1, 14]: 77.50%
orientation angle for reaching the platform [1, 14]: 53.54 ± 25.57 °
speed for reaching the platform [1, 14]: 25.56 ± 4.54 cm/s
swimming path length for reaching the platform [1, 14]: 493.65 ± 256.60 cm
time for reaching the platform [1, 14]: 20.82 ± 11.32 s
adopted strategy for reaching the platform (the peripheral type and the random type %) [1, 15]: 67.50* %
orientation angle for reaching the platform [1, 15]: 47.22 ± 23.29 °
speed for reaching the platform [1, 15]: 27.31 ± 4.62 cm/s
swimming path length for reaching the platform [1, 15]: 600.43 ± 563.07 cm
time for reaching the platform [1, 15]: 22.73 ± 21.88 s
adopted strategy for reaching the platform (the peripheral type and the random type %) [1, 16]: 75.50* %
orientation angle for reaching the platform [1, 16]: 54.72 ± 24.68 °
speed for reaching the platform [1, 16]: 27.17 ± 13.51 cm/s
swimming path length for reaching the platform [1, 16]: 571.38 ± 716.43 cm
time for reaching the platform [1, 16]: 25.95 ± 33.84 s
adopted strategy for reaching the platform (the peripheral type and the random type %) [1, 17]: 57.50* %
orientation angle for reaching the platform [1, 17]: 53.41 ± 23.18 °
speed for reaching the platform [1, 17]: 20.14 ± 4.25 cm/s
swimming path length for reaching the platform [1, 17]: 278.26 ± 125.79 cm
time for reaching the platform [1, 17]: 14.95 ± 9.19 s
adopted strategy for reaching the platform (the peripheral type and the random type %) [1, 18]: 68.00** %
orientation angle for reaching the platform [1, 18]: 43.23 ± 15.80 °
speed for reaching the platform [1, 18]: 23.96 ± 4.94 cm/s
swimming path length for reaching the platform [1, 18]: 312.55 ± 230.50 cm
time for reaching the platform [1, 18]: 14.17 ± 11.56 s
adopted strategy for reaching the platform (the peripheral type and the random type %) [1, 19]: 65.50%
orientation angle for reaching the platform [1, 19]: 46.47 ± 18.69 °
speed for reaching the platform [1, 19]: 23.50 ± 9.00 cm/s
swimming path length for reaching the platform [1, 19]: 461.68 ± 417.67 cm
time for reaching the platform [1, 19]: 21.76 ± 23.11 s
adopted strategy for reaching the platform (the peripheral type and the random type %) [1, 20]: 68.50%
orientation angle for reaching the platform [1, 20]: 46.29 ± 22.64 °
speed for reaching the platform [1, 20]: 20.87 ± 4.35 cm/s
swimming path length for reaching the platform [1, 20]: 402.97 ± 434.93 cm
time for reaching the platform [1, 20]: 20.62 ± 22.63 s
adopted strategy for reaching the platform (the peripheral type and the random type %) [1, 21]: 52.50** %
orientation angle for reaching the platform [1, 21]: 40.91 ± 15.25 °
speed for reaching the platform [1, 21]: 24.73 ± 4.83 cm/s
swimming path length for reaching the platform [1, 21]: 252.87 ± 161.30 cm
time for reaching the platform [1, 21]: 10.70 ± 6.74 s
step-down error number vs model group ([2]; 1.4 mg/kg, Day 2, P<0.05): obviously reduced
step-down error number vs model group ([2]; 2.8 mg/kg, Day 1 and Day 2, P<0.05): obviously reduced
error latency vs model group ([2]; 2.8 mg/kg, Day 2, P<0.05): obviously prolonged
Day 1, Error number [2, 22]: 7.50 ± 4.06
Day 2, Error latency [2, 22]: 215.30 ± 83.07 s
Day 2, Error number [2, 22]: 1.70 ± 1.49
Day 1, Error number [2, 23]: 6.60 ± 2.88
Day 2, Error latency [2, 23]: 223.70 ± 75.02 s
Day 2, Error number [2, 23]: 1.30 ± 1.25
Day 1, Error number [2, 24]: 5.80 ± 2.65
Day 2, Error latency [2, 24]: 250.10 ± 72.32 s
Day 2, Error number [2, 24]: 0.90 ± 1.28

— patent US12215085B2 (priority 2019, dated 2025)
